Experimental data taken from publication PMC8234803, “In Vitro Metabolism of Six C-Glycosidic Flavonoids from Passiflora incarnata L” (International Journal of Molecular Sciences, 2021).
Entries after “also recorded” stand apart in the source; their conditions may differ.

Legend:
[1] = Stability testing in test buffer (HBSS pH 6.0) under assay conditions, HPLC-DAD; assay type: physicochemical; details: 10 µM in HBSS pH 6.0, 37 °C, 5% CO2; after 3 h of incubation
Description: To guarantee the stability of all test substances during the metabolism assay on Caco-2 cells, they were incubated in the test buffer under assay conditions. Test samples were collected each hour for 5 h and were measured via HPLC-DAD.
To ensure stability during the Caco-2 metabolism experiments, all test substances were dissolved in DMSO to a concentration of 20 mM and diluted to 10 µM in an appropriate volume of HBSS (pH 6.0), resulting in a DMSO concentration of less than 1%. The test solution (1 mL) was aliquoted into a 12-well Transwell® plate and incubated for 5 h in an atmosphere of 5% CO2 and 90% relative humidity at 37 °C. Test samples (100 µL) were collected after t = 0, 1, 2, 3, 4, and 5 h and measured via HPLC-DAD. The peak area of the test substance at time t = 0 h was defined as 100%, and all other peak areas were related to calculate the proportional stability. The stability was calculated as % = area/area0 × 100. Stability testing was performed on three independent days with freshly prepared solutions (n = 3).
The system consisted of the following: Elite LaChrom with an L2200 autosampler, L2130 pump, L2350 column oven, L2444 DAD, and EZChrom Elite 3.1.7 software (Hitachi, Tokyo, Japan); column: Kinetex® Biphenyl, 100 Å, 250-4.6 mm (5 µm, same material precolumn; Phenomenex, Torrance, CA, USA); injection volume 30 µL; oven temp.: 25 °C; autosampler temp.: 10 °C; detection wavelength: 340 nm; flow: 1.2 mL/min; A = H2O + 0.1% TFA, B = acetonitrile + 0.1% TFA; gradient: 0–2 min 10% B, 2–10 min 10% B → 100% B, 10–11 min 100% B → 10% B, 11–15 min 10% B.

Caco-2 cell monolayer = test: Caco-2 monolayer metabolism experiment, metabolites identified via UHPLC-DAD-MS(/MS); assay type: in vitro ADME, human; details: for Metabolites of the aglycones (cleavage of the C–C glycosidic bond): 100 µM approach; for Possible metabolite (phase II metabolite identified by MS/MS fragmentation and comparison with reference compound after enzymatic hydrolysis): glucuronidase/sulfatase cleavage, UHPLC-DAD-MS/MS; for Extent of phase I and II metabolism (in words): independent of incubation time and concentration
Description: To obtain information on the in vitro metabolism of the six tested C-glycosidic flavonoids in the intestine, experiments were carried out using the Caco-2 monolayer model (Figure 2). Metabolite profiles were characterized at two different concentrations (10 and 100 µM; n = 3) and after two different incubation times (3 or 5 h; n = 3) in order to determine the influence of concentration and time on the metabolism reactions that occurred. Furthermore, to analyze the distribution of the observed metabolites, samples were collected from the cell lysate and the apical and basolateral compartments. All samples of the metabolism experiments using the Caco-2 cell monolayer were analyzed using UHPLC-DAD-MS and UHPLC-DAD-MS/MS. Metabolites were identified by libraries that were prepared for each compound (Tables S1–S6). The O and IO libraries contained 67 metabolites (Tables S1 and S2), the S and IS libraries contained 106 metabolites (Tables S3 and S4), and the V and IV libraries contained 71 possible metabolites (Tables S5 and S6).
To form a confluent and differentiated monolayer, cells at passages 16–45 were seeded into the inserts of 12-well Transwell® plates at a density of 3.0 × 10^5 cells/cm^2. Afterwards, the culture medium was replaced every day, and the metabolism experiment was performed 21 days after seeding. The apical and basolateral compartments contained 0.5 and 1.5 mL of cell culture medium, respectively.
On day 21, the cell culture medium was removed from the apical and basolateral compartments, and the Caco-2 cell monolayer was washed two times with prewarmed HBSS. The Transwell® plates containing HBSS were incubated at 37 °C for 15 min to measure the transepithelial electrical resistance (TEER) value. The integrity of the cell monolayers was evaluated by TEER values between the apical and basolateral sides with the Evohm2 system (World Precision Instruments, Sarasota, FL, USA). The cell inserts were only used for the metabolism experiments if the resistance exceeded 350 Ω/cm^2. The six test substances were dissolved in DMSO to a stock solution of 20 mM. The HBSS was adjusted to pH 6.0 and 7.4 with 1 M HCl. Afterwards, the stock solutions were diluted to 10 or 100 µM in an appropriate volume of HBSS (pH 6.0) to obtain a DMSO concentration of <1%. The test solutions were added to the apical side (0.5 mL), while the basolateral side was filled with 1.5 mL of HBSS (pH 7.4). The Transwell® plates were incubated at 37 °C for 3 or 5 h, respectively. After this period, solutions from the apical and basolateral compartments were collected in separate tubes, washed twice with 500 µL of HBSS, and then collected again. The samples were lyophilized and stored at −20 °C until they were measured using UHPLC-DAD-MS. After the experiment, Transwell® inserts were apically (0.5 mL) and basolaterally (1.5 mL) filled with HBSS and warmed to 37 °C for 20 min. Then, the TEER values were measured to guarantee the integrity of the monolayer during the experiment. The experiment was performed in triplicate for each substance, concentration, and incubation time.
After the metabolism experiment, cell monolayers were washed twice with PBS and incubated with 200 µL of trypsin-EDTA for 10 min at 37 °C in an atmosphere of 5% CO2 and constant humidity in the incubator. The cells were removed from the well by pipetting up and down, and were collected in a tube. The well was washed twice with PBS (1 mL), and the wash solution was also collected in the corresponding tube. The mixture was centrifuged (1000× g rpm, 5 min), and the supernatant was discarded.

Caco-2 cells = test: MTT assay under metabolic conditions (cell viability); assay type: cell-based, human; details: 10, 25, 50, 75, 100 µM in HBSS (pH 6.0), 5 h incubation
Description: All six substances were tested in five different dilutions in HBSS (pH 6.0). The determined viability values of O, IO, S, IS, V, and IV are listed in the Supplementary Materials (Figure S2).
Caco-2 cells in the logarithmic growth phase were seeded in 96-well plates at a density of 3 × 10^4 cells/well and incubated at 37 °C in an atmosphere of 5% CO2 and constant moisture in an incubator. After 24 h, the cell culture medium was removed, and 100 µL of HBSS solution (negative control), 0.5% DMSO in HBSS solution (solvent control), or flavonoid samples in HBSS solution (6 flavonoids at concentrations of 10, 25, 50, 75, and 100 µM) was applied in quintuplicate and incubated for 5 h. Afterwards, the HBSS solutions were removed and replaced with an MTT solution in DMEM (0.4 mg/mL) and incubated for another 3 h at 37 °C. Then, the MTT solution was discarded, and the cells were fixed with a 10% SDS solution in PBS and stored at room temperature in the dark. After 24 h, the absorbance was measured on a Tecan microplate reader (Tecan Trading AG, Switzerland) at 560 nm. The viability rate was calculated as % = A/A0 × 100, with A as the average absorbance value of the treatment and solvent control groups and A0 as the average absorbance value of the negative control group. The assay was performed three times in pentaplicate.
The human colon adenocarcinoma cell line Caco-2 was obtained from the ATCC (American Type Culture Collection, Manassas, VA, USA). The cell line was determined to be free of mycoplasma contamination by PCR and culture from GATC Biotech AG (Konstanz, Germany). The cells were cultured in DMEM supplemented with 10% (v/v) FBS, 1% (v/v) NEAA, and 1% (v/v) antibiotics (penicillin/streptomycin) in an atmosphere of 5% CO2 and 90% relative humidity at 37 °C. The culture medium was replaced every 3 days, and the cells were split 1:5 using trypsin-EDTA once 90% confluence was obtained.

[2] = metabolite at RT 5.134 min, m/z 477.0674
[3] = metabolite at RT 5.476 min, m/z 461.0724
[4] = initial concentration 10 µM, 3 h, apical compartment
[5] = initial concentration 10 µM, 3 h, basolateral compartment
[6] = initial concentration 10 µM, 5 h, apical compartment
[7] = initial concentration 100 µM, 3 h, apical compartment
[8] = initial concentration 100 µM, 3 h, basolateral compartment
[9] = initial concentration 100 µM, 5 h, apical compartment
[10] = initial concentration 100 µM, 5 h, cell lysate

Stability (content relative to t = 0 h) [1]	Extent of metabolism (in words) (Caco-2 cell monolayer; 100 µM, 3 and 5 h)	Possible metabolite (phase II metabolite identified by MS/MS fragmentation and comparison with reference compound after enzymatic hydrolysis) (Caco-2 cell monolayer; [2])	Possible metabolite (phase II metabolite identified by MS/MS fragmentation and comparison with reference compound after enzymatic hydrolysis) (Caco-2 cell monolayer; [3])	Compound	Extent of metabolism (in words) (Caco-2 cell monolayer; 10 µM, 3 and 5 h)	Metabolites of the aglycones (cleavage of the C–C glycosidic bond) (Caco-2 cell monolayer)	Extent of phase I and II metabolism (in words) (Caco-2 cell monolayer)	Possible metabolite detected (Caco-2 cell monolayer; [4])	Possible metabolite detected (Caco-2 cell monolayer; [5])	Possible metabolite detected (Caco-2 cell monolayer; [6])	Possible metabolite detected (Caco-2 cell monolayer; [7])	Possible metabolite detected (Caco-2 cell monolayer; [8])	Possible metabolite detected (Caco-2 cell monolayer; [9])	Possible metabolite detected (Caco-2 cell monolayer; [10])	Effect on the viability of Caco-2 cells (in words) (Caco-2 cells)	further results
approximately 100%	extensive metabolism	Quercetin-glucuronide	Luteolin-glucuronide	O=c1cc(-c2ccc(O)c(O)c2)oc2cc(O)c([C@@H]3O[C@H](CO)[C@@H](O)[C@H](O)[C@H]3O)c(O)c12 [IO, isoorientin]	broader ranges of phase I and II metabolites	metabolites of the corresponding aglycones apigenin and luteolin were also detected	highly metabolized in phase I and II reactions	Isoorientin-sulfate; also recorded: Hydroxy-luteolin-glucuronide; also recorded: Hydroxy-methoxy-isoorientin	Isoorientin-sulfate; also recorded: Hydroxy-methoxy-isoorientin	Isoorientin-sulfate; also recorded: Hydroxy-methoxy-isoorientin	Methoxy-isoorientin-sulfate; also recorded: Hydroxy-luteolin-glucuronide; also recorded: Methoxy-luteolin; also recorded: Hydroxy-methoxy-isoorientin	Isoorientin-sulfate; also recorded: Hydroxy-methoxy-isoorientin	Hydroxy-isoorientin; also recorded: Methoxy-isoorientin-sulfate; also recorded: Hydroxy-luteolin-glucuronide	Isoorientin-sulfate; also recorded: Methoxy-isoorientin	no significant effects at any concentration	Possible metabolite (phase II metabolite identified by MS/MS fragmentation and comparison with reference compound after enzymatic hydrolysis) (Caco-2 cell monolayer; metabolite at RT 2.514 5.107 min, m/z 527.0501): IO-sulfate; Possible metabolite detected (Caco-2 cell monolayer; initial concentration 100 µM, 3 h, cell lysate): Isoorientin-sulfate; also recorded: Methoxy-isoorientin; Possible metabolite detected (Caco-2 cell monolayer; initial concentration 100 µM, 5 h, basolateral compartment): Isoorientin-sulfate
approximately 100%	extensive metabolism	Quercetin-glucuronide	Luteolin-glucuronide	O=c1cc(-c2ccc(O)c(O)c2)oc2c([C@@H]3O[C@H](CO)[C@@H](O)[C@H](O)[C@H]3O)c(O)cc(O)c12 [O, orientin]	broader ranges of phase I and II metabolites	metabolites of the corresponding aglycones apigenin and luteolin were also detected	highly metabolized in phase I and II reactions	Orientin-sulfate; also recorded: Hydroxy-methoxy-orientin	Orientin-sulfate; also recorded: Hydroxy-methoxy-orientin	Orientin-sulfate; also recorded: Methoxy-orientin	Orientin-sulfate; also recorded: Hydroxy-luteolin-glucuronide; also recorded: Methoxy-luteolin; also recorded: Hydroxy-methoxy-orientin	Orientin-sulfate	Orientin-sulfate; also recorded: Hydroxy-luteolin-glucuronide; also recorded: Hydroxy-methoxy-orientin	Methoxy-orientin	no significant effects at any concentration	Possible metabolite (phase II metabolite identified by MS/MS fragmentation and comparison with reference compound after enzymatic hydrolysis) (Caco-2 cell monolayer; metabolite at RT 3.146 min, m/z 527.0499): O-sulfate

Compound	Stability (content relative to t = 0 h) [1]	Extent of metabolism (in words) (Caco-2 cell monolayer; 100 µM, 3 and 5 h)	Possible metabolite (phase II metabolite identified by MS/MS fragmentation and comparison with reference compound after enzymatic hydrolysis) (Caco-2 cell monolayer; [2])	Possible metabolite (phase II metabolite identified by MS/MS fragmentation and comparison with reference compound after enzymatic hydrolysis) (Caco-2 cell monolayer; [3])	Extent of metabolism (in words) (Caco-2 cell monolayer; 10 µM, 3 and 5 h)	Metabolites of the aglycones (cleavage of the C–C glycosidic bond) (Caco-2 cell monolayer)	Extent of phase I and II metabolism (in words) (Caco-2 cell monolayer)	Possible metabolite detected (Caco-2 cell monolayer; [4])	Possible metabolite detected (Caco-2 cell monolayer; [5])	Possible metabolite detected (Caco-2 cell monolayer; [6])	Possible metabolite detected (Caco-2 cell monolayer; [7])	Possible metabolite detected (Caco-2 cell monolayer; [8])	Possible metabolite detected (Caco-2 cell monolayer; [9])	Possible metabolite detected (Caco-2 cell monolayer; [10])	Effect on the viability of Caco-2 cells (in words) (Caco-2 cells)	further results
O=c1cc(-c2ccc(O)cc2)oc2c([C@@H]3O[C@H](CO)[C@@H](O)[C@H](O)[C@H]3O)c(O)c([C@@H]3OC[C@H](O)[C@H](O)[C@H]3O)c(O)c12 [IS, isoschaftoside]	approximately 100%	a few hydroxylated and methoxylated derivatives			very limited metabolism		poorly metabolized in phase I and II reactions				Methoxy-isoschaftoside				no significant effects at any concentration	Phase II conjugates containing glucuronic acid or sulfates (Caco-2 cell monolayer; 10 µM, 3 and 5 h): No phase II conjugates containing glucuronic acid or sulfates were detectable; Phase II metabolites with glucuronic acid or sulfates (Caco-2 cell monolayer; 100 µM, 3 and 5 h): lacked the presence of phase II metabolites with glucuronic acid or sulfates
